Drawing on ChEMBL document CHEMBL1135556, “alpha-bromoacetophenone derivatives as neutral protein tyrosine phosphatase inhibitors: structure-Activity relationship” (Bioorg Med Chem Lett, 2002), this text covers Ratio, kinact and Ki for 18 compounds.

For test [1], the target named is Tyrosine-protein phosphatase non-receptor type 6, SHP-1 (Homo sapiens) (UniProt P29350). As to the kind of experiment: Ratio between dissociation constant and First-order rate constant (K inact / Ki) was determined.
Tyrosine-protein phosphatase non-receptor type 6, SHP-1 (Homo sapiens), sequence (P29350 whole entry, looked up): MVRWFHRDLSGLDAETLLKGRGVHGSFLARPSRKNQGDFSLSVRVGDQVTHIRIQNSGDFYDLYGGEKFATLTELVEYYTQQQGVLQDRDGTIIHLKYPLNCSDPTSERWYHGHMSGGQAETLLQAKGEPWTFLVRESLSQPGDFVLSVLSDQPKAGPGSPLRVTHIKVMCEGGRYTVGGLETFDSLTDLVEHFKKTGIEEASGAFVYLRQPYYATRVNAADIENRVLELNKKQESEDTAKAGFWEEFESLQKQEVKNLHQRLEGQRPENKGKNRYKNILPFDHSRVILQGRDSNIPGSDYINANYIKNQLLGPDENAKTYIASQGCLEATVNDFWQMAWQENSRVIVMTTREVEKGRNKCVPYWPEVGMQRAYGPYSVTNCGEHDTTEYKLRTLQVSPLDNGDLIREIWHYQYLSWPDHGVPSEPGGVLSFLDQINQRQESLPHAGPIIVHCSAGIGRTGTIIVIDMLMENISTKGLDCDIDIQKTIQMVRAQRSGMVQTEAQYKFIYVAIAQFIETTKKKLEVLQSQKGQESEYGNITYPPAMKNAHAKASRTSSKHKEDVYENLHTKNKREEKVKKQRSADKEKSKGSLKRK
Test [2] shares this target. As to the kind of experiment: First-order rate constant (K inact) for conversion of the ExI complex (SHP-1 -inhibitor complex) into the covalent adduct, EI was determined using PNP as substrate.
Test [3] has the same target. As to the kind of experiment: Dissociation constant towards SHP-1 receptor-inhibitor complex was determined using PNP as substrate.
The target is the same in test [4]. As to the kind of experiment: Dissociation constant towards SHP 1 receptor-inhibitor complex was determined using PNP as substrate.
Test [5] has the same target. As to the kind of experiment: First-order rate constant (K inact) for conversion of the ExI complex (SHP 1 protein -inhibitor complex) into the covalent adduct, EI was determined using PNP as substrate.
In test [6] the target is T1, Tyrosine-protein phosphatase non-receptor type 6 (Homo sapiens, UniProt P29350). As to the kind of experiment: Dissociation constant towards SHP 1 receptor-inhibitor complex was determined using PNP as substrate.
T1 sequence (P29350 whole entry): as the sequence (P29350 whole entry, looked up) above
Test [7] concerns the target T1, Tyrosine-protein phosphatase non-receptor type 6.
Test [8] deals with T2, Tyrosine-protein phosphatase non-receptor type 1 (Homo sapiens) (UniProt P18031).
T2 sequence (whole entry): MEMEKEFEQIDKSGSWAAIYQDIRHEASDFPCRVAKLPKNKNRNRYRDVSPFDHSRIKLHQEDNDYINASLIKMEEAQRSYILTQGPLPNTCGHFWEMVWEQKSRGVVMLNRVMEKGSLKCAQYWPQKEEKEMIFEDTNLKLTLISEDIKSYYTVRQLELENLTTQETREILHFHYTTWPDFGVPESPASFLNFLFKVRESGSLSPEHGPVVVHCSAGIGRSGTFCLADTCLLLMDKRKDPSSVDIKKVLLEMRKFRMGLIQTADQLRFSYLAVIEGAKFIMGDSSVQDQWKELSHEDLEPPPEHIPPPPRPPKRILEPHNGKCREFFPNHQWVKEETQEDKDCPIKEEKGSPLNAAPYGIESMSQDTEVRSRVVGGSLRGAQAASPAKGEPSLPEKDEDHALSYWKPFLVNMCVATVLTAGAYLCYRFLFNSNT
The test is described as follows: First-order rate constant (K inact) for conversion of the ExI complex (SHP 1 receptor -inhibitor complex) into the covalent adduct, EI was determined using PNP as substrate.

For `O=C(O)COc1ccc(C(=O)CCl)cc1`, the Ratio in test [1] is 710 M⁻¹ min⁻¹. Moreover, the kinact – broadly, the rate constant of inactivation at saturating inhibitor – in test [2] came to 1.8 min⁻¹. In addition, the Ki (commonly a measure of affinity in units of concentration, obtained from inhibition or displacement) in test [3] is 2500 µM.
In test [4], `NC(N)=NCCCC(NC(=O)[C@H](CCCN=C(N)N)NC(=O)CNC(=O)COc1ccc(C(=O)CBr)cc1)C(=O)O` (some centres not stated) came in with a Ki of 760 µM.
For the compound `O=C(CBr)c1ccc2ccccc2c1`, in test [1], the Ratio was 20000 M⁻¹ min⁻¹. In addition, the kinact in test [2] was determined as 0.48 min⁻¹. This compound also gave a Ki in test [3] of 25 µM.
In the same order, the values of `O=C(CCl)c1ccccc1` [PHENACYL CHLORIDE] are 430 M⁻¹ min⁻¹, 0.21 min⁻¹ and 480 µM.
In the same order, the values of `O=C(CCl)c1ccc(F)cc1` are 580 M⁻¹ min⁻¹, 0.22 min⁻¹ and 380 µM.
On to `O=C(CBr)c1ccccn1`, for which the Ratio in test [1] worked out at 7500 M⁻¹ min⁻¹. Also, the inactivation rate constant (kinact) in test [2] was 1.3 min⁻¹. The compound also gave an inhibition constant Ki in test [3] of 173 µM.
The matching figures for `O=C(CBr)c1ccccc1`: 7100 M⁻¹ min⁻¹, 0.58 min⁻¹ and 81 µM.
In the case of `O=C(CCl)c1ccc(O)c(O)c1`, the Ratio in test [1] worked out at 420 M⁻¹ min⁻¹. Besides, the kinact in test [2] came out at 0.59 min⁻¹. The affinity in test [3] corresponds to a Ki of 1400 µM.
For `O=C(CBr)c1ccc(C(F)(F)F)cc1`, the Ratio in test [1] is 26000 M⁻¹ min⁻¹. For the same compound, in test [2], the kinact came to 0.37 min⁻¹. Moreover, the Ki in test [3] was found to be 14 µM.
`O=C(O)COc1ccc(C(=O)CBr)cc1` returned a Ki in test [4] of 193 µM. Further, the Ratio in test [1] amounted to 9300 M⁻¹ min⁻¹. In test [5], the kinact worked out at 1.8 min⁻¹.
Take `O=C(CBr)c1ccc(F)cc1`: the Ratio in test [1] is 9100 M⁻¹ min⁻¹. Moreover, the kinact in test [2] came out at 0.51 min⁻¹. The compound also came in with a Ki in test [3] of 56 µM.
On to `O=C(CCl)c1ccc(F)cc1F`, for which the Ratio in test [1] was 120 M⁻¹ min⁻¹. Besides, in test [2], the kinact amounted to 2.1 min⁻¹. Further, the Ki in test [3] was found to be 17500 µM.
Regarding `O=C(CBr)c1ccc(-c2ccccc2)cc1`, in test [1], the Ratio is 41 M⁻¹ min⁻¹. Also, the kinact in test [2] was found to be 0.59 min⁻¹. The same compound yielded a Ki in test [3] of 14 µM.
Consider `O=C(CBr)c1ccc(-c2ccccc2C(=O)O)cc1`, for which the affinity in test [4], expressed as Ki, was 220 µM. The Ratio in test [1] was 4550 M⁻¹ min⁻¹. In test [5], the kinact was determined as 1 min⁻¹.
For the compound `O=C(CBr)c1cccc2ccccc12`, the Ratio in test [1] was 9400 M⁻¹ min⁻¹. The kinact in test [2] was 0.86 min⁻¹. This compound returned a Ki in test [3] of 92 µM.
With `O=C(O)CCC(NC(=O)[C@H](CCC(=O)O)NC(=O)CNC(=O)COc1ccc(C(=O)CBr)cc1)C(=O)O` (some centres not stated), the inhibition constant Ki in test [6] turned out to be 29 µM; in test [3], 2.8 µM. For the same compound, the results for the inactivation rate constant (kinact) in test [2] and in test [7] were 1.2 min⁻¹ and 6.6 min⁻¹, respectively.
On to `N=C(N)NCCCC(NC(=O)[C@H](CCCNC(=N)N)NC(=O)CNC(=O)COc1ccc(C(=O)CBr)cc1)C(=O)O` (some centres not stated), for which, in test [1], the Ratio is 6300 M⁻¹ min⁻¹. In test [8], the maximal inactivation rate constant (kinact) is 4.8 min⁻¹.
Regarding `O=C(CBr)c1ccc(O)cc1`, the Ratio in test [1] was determined as 9300 M⁻¹ min⁻¹. Further, the maximal inactivation rate constant (kinact) in test [2] stood at 0.4 min⁻¹. The same compound displayed an inhibition constant Ki in test [3] of 43 µM.
